Experiments:
[1] = co-administration with ketoconazole; inhibition of the metabolic elimination of cisapride; cited from earlier work
[2] = biological target: T1, 5-HT3 receptor subtypes derived from N1E-115 cells (Mus musculus, UniProt P23979); test: Receptor binding, 5-HT3 receptor (radioligand binding, Cerep); details: ratio of IC50 at 5-HT3 to IC50 at 5-HT4
T1 construct: 5-HT3 receptor subtypes derived from N1E-115 cells; host or cells: N1E-115 cells
T1 sequence (P23979 24-489): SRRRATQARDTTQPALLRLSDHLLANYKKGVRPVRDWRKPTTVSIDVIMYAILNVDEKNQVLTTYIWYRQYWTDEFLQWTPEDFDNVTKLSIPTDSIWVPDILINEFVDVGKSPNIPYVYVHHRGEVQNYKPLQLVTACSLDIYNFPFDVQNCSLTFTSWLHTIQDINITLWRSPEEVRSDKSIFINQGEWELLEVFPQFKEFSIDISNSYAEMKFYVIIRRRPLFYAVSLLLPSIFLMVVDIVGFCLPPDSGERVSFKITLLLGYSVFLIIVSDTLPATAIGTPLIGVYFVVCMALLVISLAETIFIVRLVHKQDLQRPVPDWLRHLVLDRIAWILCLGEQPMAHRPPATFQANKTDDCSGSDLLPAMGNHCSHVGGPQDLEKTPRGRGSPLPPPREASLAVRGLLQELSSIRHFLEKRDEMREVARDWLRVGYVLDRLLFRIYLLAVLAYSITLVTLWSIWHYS
Description: Receptor Binding 5-HT3 Receptor
Following incubation with the appropriate ligands, the preparations were rapidly filtered under vacuum through GF/B glass fiber filters and washed with ice-old buffer using a Brandel or Packard cell harvester.
Specific radioligand binding to the receptor was defined as the difference between total binding and nonspecific binding determined in the presence of an excess of unlabeled ligand. Results were expressed as a percent inhibition of specific binding obtained in the presence of the compounds.

Compound	increase of the steady-state plasma levels [1]	5-HT3/5-HT4 Ratio [2]
COc1cc(N)c(Cl)cc1C(=O)N[C@H]1CCN(CCCOc2ccc(F)cc2)C[C@H]1OC (racemic) [(±) Cisapride, cis-4-amino-5-chloro-N-[1-[3-(4-fluorophenoxy)propyl]-3-methoxy-4-piperidinyl]-2-methoxybenzamide]	8 fold	
COc1cc(N)c(Cl)cc1C(=O)NC1CCNCC1OC (racemic) [(±) Norcisapride, 4-amino-5-chloro-N-(3-methoxy-4-piperidinyl)-2-methoxybenzamide]		0.012
COc1cc(N)c(Cl)cc1C(=O)NC1CCNCC1OC (single isomer, unassigned; (+)) [(+) Norcisapride]		0.014
COc1cc(N)c(Cl)cc1C(=O)NC1CCNCC1OC (single isomer, unassigned; (-)) [(−) Norcisapride]		0.023

From patent US6552045B2 (Sepracor Inc., priority 1999, dated 2003)
